{
  "source": "patent US20260035372A1",
  "about": "“METHOD FOR PREPARING (R)-KETOROLAC AND USE THEREOF” (Yinuoke Medicine Science and Technology Co LTD, priority 2022, published 2026)",
  "key": {"[1]": {"tested_on": "colon cancer model Colon-26", "conditions": "Colon-26 in BALB/C mice; cyclophosphamide i.p. 3 mg every 6 d x3, with or without (R)-ketorolac 0.1 mg/d x18", "protocol": "(§1) The colon cancer tumor model was established by using adult male BALB/C mice which were subcutaneously inoculated 106 well-growing Colon-26 tumor cells. Starting from the 7th day after tumor inoculation, the two largest diameters of the tumors were measured with vernier calipers twice a week, and the tumor size was expressed as area (square millimeters). After the tumors grew to a certain size, the mice were randomly divided into 4 groups, including a control group (n=5) and 3 treatment groups: the (R)-ketorolac monotherapy group (n=5) was administered by gavage, 0.1 mg/d, for a total of 12 d; the gemcitabine monotherapy group (n=4) was administered intraperitoneally, 2 mg/1 time every 3 d, for a total of 4 times; and the combined therapy group (n=5) adopted the two drugs in combination, and the dosage and frequency of administration were the same as those in the monotherapy group.\nThe colon cancer tumor model was established as described in the above.\nAfter starting the treatment, the tumors were measured twice a week, and a tumor growth curve was made based on average tumor area±SEM."}, "[2]": {"conditions": "stronger than (R)-ketorolac; cited from earlier work"}, "[3]": {"conditions": "stronger than (R)-ketorolac; cited from earlier work", "remark": "listed apart in the source"}, "[4]": {"tested_on": "colon cancer model Colon-26", "experiment": "(R)-ketorolac combined with gemcitabine on colon cancer model Colon-26, tumor growth curve", "type": "in vivo", "conditions": "Colon-26 s.c. in male BALB/C mice; (R)-ketorolac alone by gavage 0.1 mg/d for 12 d", "protocol": "as §1\nAfter starting the treatment, the tumors were measured twice a week, and a tumor growth curve was made based on average tumor area=SEM."}, "[5]": {"tested_on": "aortic dissection and aortic aneurysm", "conditions": "oral administration; from CN202111115983.X; cited from earlier work"}},
  "data": [
    {"smiles": "O=P1(N(CCCl)CCCl)NCCCO1", "note": "(stereo not drawn) [cyclophosphamide]", "values": [
      {"measurement": "cure rate", "setting": "[1]", "result": 16.7, "unit": "%"},
      {"measurement": "mice completely cured", "setting": "[1]", "result": "1 out of 6"}
    ]},
    {"smiles": "O=C(c1ccccc1)c1ccc2n1CC[C@@H]2C(=O)O", "note": "[(S)-ketorolac]", "values": [
      {"measurement": "anti-inflammatory effect relative to (R)-ketorolac", "setting": "[2]", "result": 60, "unit": "times"},
      {"measurement": "analgesic effect relative to (R)-ketorolac", "setting": "[3]", "result": 230, "unit": "times"}
    ]},
    {"smiles": "O=C(c1ccccc1)c1ccc2n1CC[C@H]2C(=O)O", "note": "[(R)-ketorolac]", "values": [
      {"measurement": "effect on colon cancer tumor growth (tumor area growth curve, FIG. 16)", "setting": "[4]", "result": "no effect"},
      {"measurement": "effect on aortic dilation, incidence and mortality of aortic dissection and aortic aneurysm", "setting": "[5]", "result": "inhibit pathological dilation of the aorta and reduce the incidence and mortality of aortic dissection and aortic aneurysm"}
    ]}
  ]
}
